Each structure is given as a SMILES string. Entries after “also recorded” stand apart in the source; their conditions may differ.

The first test has as its system protein kinase. Put plainly: HTS ATP-utilizing enzyme assay, off-chip mobility-shift format (Caliper HTS 250). It counts as biochemical, human.
Details: not given
The gist of the method:
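Kinase reactions ran 2.5 h at 20 to 22 °C with test compound at 10 μM, in a HEPES pH 7.5 master buffer containing Triton X-100 and BSA. Peptide substrate and phosphorylated product separated by mobility shift; inhibition normalized to DMSO (0%) and EDTA (100%) controls, with three-sigma thresholds for hits.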
Regarding `COc1ccccc1-n1c(SCCCCc2ccccc2)nnc1-c1cc(C)n[nH]1`, the “protein kinase against which the compound exhibits inhibitory activity (Table 3)” value is reported as “MAPKAPK-3”.

Still in this test, the particulars now being: kinase(s) for which the compound exhibits protein kinase inhibitory activity; test compound 10 μM; active = greater than three-sigma from the mean activity of inactive compounds.
`Cc1ccc(-n2c(S)nnc2CNc2ccc(C)c(Cl)c2)cc1`: the Kinase entry was “GSK3-α; also recorded: AURORA-A”. The same measure, in the same setting: with `COc1ccc(-n2c(CNc3cc(C(F)(F)F)ccc3Cl)nnc2SCC#N)cc1` the entry was “CDK1”. On the same count and under the same terms, with `Cc1ccc(-n2c(CNc3ccc(F)cc3)nnc2SCC(=O)Nc2ccccc2C(F)(F)F)cc1` the entry was “AKT1”; with `CCn1c(SCC(=O)c2ccc(C)cc2)nnc1-c1ccc(S(=O)(=O)N2CCCCCC2)cc1`, “AURORA-A”. Same read-out and setting: for `Cc1ccc(-n2c(CNc3ccc(F)cc3)nnc2SCC(=O)O)cc1` the value was “DAPK1; also recorded: AURORA-A”; for `Cc1cccc(-c2nnc(SCC(=O)O)[nH]2)c1` [2-(5-m-tolyl-4H-1,2,4-triazol-3-ylthio)acetic acid], “GSK3-β; also recorded: DYRK2; also recorded: AURORA-A”; for `O=C(O)CSc1nnc(-c2ccc([N+](=O)[O-])cc2)n1CC1CCCO1` (stereo not shown), “PDGFRR-α”. For the compound `O=C(O)CSc1nnc(-c2ccc(O)cc2)n1-c1ccccc1` [2-(5-(4-hydroxyphenyl)-4-phenyl-4H-1,2,4-triazol-3-ylthio)acetic acid], the Kinase entry is “GSK3-β; also recorded: GSK3-α”. Still for that read-out and setting: with `COc1ccc(-n2c(COc3cccc(C)c3)nnc2SC(C)C(=O)O)cc1` (stereo not shown) the entry was “AURORA-A”. Same read-out and setting: for `O=c1c(Sc2nnc(-c3ccccc3)n2C2CCCCC2)c(Br)cnn1-c1ccccc1` the value was “GSK3-α”; for `CCn1c(CNc2ccc(C)cc2C)nnc1SCC(=O)Nc1ccccc1-c1ccccc1`, “GSK3-α”. As for `COc1cc(NC(=O)CSc2nncn2N)cc(OC)c1` [2-(4-amino-4H-1,2,4-triazol-3-ylthio)-N-(3,5-dimethoxyphenyl)acetamide], the Kinase result is recorded as “DYRK2”. As to `COc1ccc(-n2c(S)nnc2-c2ccc(O)cc2)cc1` [4-(5-mercapto-4-(4-methoxyphenyl)-4H-1,2,4-triazol-3-yl)phenol], the Kinase result is “CDK5 and GSK3-β and GSK3-α”. The same measure, in the same setting: for `COc1ccc(-c2nnc(S)n2-c2ccc(C)cc2)cc1` [5-(4-methoxyphenyl)-4-p-tolyl-4H-1,2,4-triazole-3-thiol] the value was “GSK3-β; also recorded: GSK3-α”; for `COc1ccc(NCc2nnc(SCC(=O)Nc3cccc(Cl)c3)n2C)cc1`, “PDGFRR-α and AURORA-A and FYN”; for `CCn1c(SCC(=O)N2CCN(c3ccc(OC)cc3)CC2)nnc1-c1ccc(O)cc1`, “SYK”. The same measure, in the same setting: with `COc1ccc(NCc2nnc(SCC(=O)Nc3ccccc3)n2-c2ccc(C)cc2)cc1` the entry was “FYN and PDGFRR-α and FLT-3”; with `COc1ccc(-n2c(S)nnc2CNc2cccc(C(F)(F)F)c2)cc1`, “GSK3-α; also recorded: GSK3-β”; with `CCC(=O)Nc1cc(NC(=O)CSc2nnc(-c3ccc(O)cc3)n2CC)ccc1C`, “SGK1”. Still for that read-out and setting: with `Cc1ccc(-n2c(SCC(=O)O)nnc2-c2ccc([N+](=O)[O-])cc2)cc1` [2-(5-(4-nitrophenyl)-4-p-tolyl-4H-1,2,4-triazol-3-ylthio)acetic acid] the entry was “DAPK1”. As to `COc1ccc(-n2c(SCC#N)nnc2-c2cccnc2)cc1`, the Kinase entry was “AURORA-A”. On the same count and under the same terms, for `Cc1ccc(NC(=O)CSc2nnc(-c3ccc(O)cc3)n2C)cc1` the value was “GSK3-β; also recorded: GSK3-α”; for `COc1ccc(-n2c(SCC#N)nnc2-c2ccc(NS(=O)(=O)c3ccc(C)cc3)cc2)cc1`, “CDK2-cyclinA and CDK1 and CDK2-cyclinE”. The same measure, in the same setting: with `CCOC(=O)CN(C(=O)CSc1nnc(-c2ccccc2)n1-c1ccccc1OC)c1cccc([N+](=O)[O-])c1` the entry was “GSK3-α”; with `O=C(CSc1nnc(-c2cc3ccccc3cc2O)n1Cc1ccco1)c1ccc(F)cc1`, “AURORA-A”; with `CCn1c(CNc2ccc(C)c(Cl)c2)nnc1SCC(=O)O`, “PDGFRR-α”. Turning to `C=CCn1c(SCC(=O)Nc2sc3c(c2C(=O)OCC)CCC3)nnc1-c1ccncc1`, the Kinase entry is “CDK1 and AURORA-A”. Take `CCn1c(SCC(=O)Nc2ccc(C)cc2)nnc1-c1ccc(O)cc1`: the Kinase entry is listed as “AURORA-A”. Turning to `CCn1c(SCC(=O)Nc2nccs2)nnc1-c1ccccc1` [2-(4-ethyl-5-phenyl-4H-1,2,4-triazol-3-ylthio)-N-(thiazol-2-yl)acetamide], the Kinase entry is reported as “GSK3-β; also recorded: GSK3-α; also recorded: CHEK2”. Still for that read-out and setting: with `COC(=O)c1ccccc1NC(=O)CSc1nnc(-c2ccc(O)cc2)n1Cc1ccco1` the entry was “GSK3-β and MSK2 and GSK3-α”; with `O=C(CSc1nnc(-c2ccncc2)n1CC1CCCO1)Nc1nccs1` (stereo not shown), “GSK3-β and GSK3-α and ABL1”. The same measure, in the same setting: with `CCn1c(CNc2cccc(C(F)(F)F)c2)nnc1SCC#N` the entry was “CDK2 and CDK1 and CHEK2”; with `O=C(CSc1nnc(CSc2nc3ccccc3s2)n1-c1ccccc1)NCCO`, “FYN”.

Staying with this test, now noted: test compound 10 μM; active = activity greater than three-sigma from the mean of the predominately inactive population for that enzyme.
Take `O=C(O)c1ccc(CSc2nnc(-c3cccc(Cl)c3)[nH]2)cc1` [4-((5-(3-chlorophenyl)-4H-1,2,4-triazol-3-ylthio)methyl)benzoic acid]: the “protein kinase against which the compound exhibits inhibitory activity (Table 3)” value was “FLT-3; also recorded: DYRK2; also recorded: AURORA-A”. Still for that read-out and setting: with `Cc1nnc(SCc2ccccc2)n1Cc1ccccc1` [4-benzyl-3-(benzylthio)-5-methyl-4H-1,2,4-triazole] the entry was “GSK3-β; also recorded: GSK3-α”; with `Cc1ccc(-c2nnc(CSc3nnc(COc4ccccc4)n3-c3ccc(C)cc3)o2)cc1`, “GSK3-α”; with `COC(=O)c1ccc(CSc2nnc(-c3cccc(C)c3)[nH]2)cc1` [methyl 4-((5-m-tolyl-4H-1,2,4-triazol-3-ylthio)methyl)benzoate], “AURORA-A; also recorded: FLT-3; also recorded: c-TAK1”. On the same count and under the same terms, for `Cc1ccc(NCc2nnc(SCc3ccccc3)n2C)cc1` the value was “AURORA-A”; for `CCOCCSc1nnc(-c2cccs2)[nH]1` [3-(2-ethoxyethylthio)-5-(thiophen-2-yl)-4H-1,2,4-triazole], “AURORA-A; also recorded: DYRK2; also recorded: GSK3-β”; for `CCn1c(SCc2ccc(Cl)cc2)nnc1-c1ccc(O)cc1` [4-(5-(4-chlorobenzylthio)-4-ethyl-4H-1,2,4-triazol-3-yl)phenol], “MSK2 and GSK3-β and MSK1”. In the case of `COc1ccc(-c2nnc(SCc3ccc(Cl)cc3)n2-c2ccccc2)cc1OC` [3-(4-chlorobenzylthio)-5-(3,4-dimethoxyphenyl)-4-phenyl-4H-1,2,4-triazole], the “protein kinase against which the compound exhibits inhibitory activity (Table 3)” value is given as “CDK1”. The same measure, in the same setting: for `COCCCn1c(C)nnc1SCc1ccc(C(C)(C)C)cc1` [3-(4-tert-butylbenzylthio)-4-(3-methoxypropyl)-5-methyl-4H-1,2,4-triazole] the value was “MAPKALPK-2 and AKT1”; for `c1ccc(-c2nnc(SCC3CCCCC3)[nH]2)cc1` [3-(cyclohexylmethylthio)-5-phenyl-4H-1,2,4-triazole], “AURORA-A; also recorded: c-TAK1; also recorded: CHEK2”. On the same count and under the same terms, for `COc1ccc(Cc2nnc(SCc3cccc4ccccc34)[nH]2)cc1` [3-(4-methoxybenzyl)-5-(naphthalen-1-ylmethylthio)-4H-1,2,4-triazole] the value was “AURORA-A”; for `CCn1c(C)nnc1SCc1ccccc1` [3-(benzylthio)-4-ethyl-5-methyl-4H-1,2,4-triazole], “GSK3-α”; for `COc1ccccc1-n1c(SCC(=O)N2CCCC2)nnc1-c1ccccc1O`, “PRAK”.

As for `COc1ccc(-n2c(CNc3cc(C(F)(F)F)ccc3Cl)nnc2SCc2ccccc2Cl)cc1`, the “protein kinase against which the compound exhibits inhibitory activity (Table 3)” value was “CDK1”. Still for that read-out and setting: for `O=C(NCCSc1nnc(-c2cccc(C(F)(F)F)c2)[nH]1)c1ccccc1` the value was “GSK3-β; also recorded: GSK3-α; also recorded: CHEK2”. The same measure, in the same setting: for `CC(=O)c1ccc(-n2c(SCCCCc3ccccc3)nnc2-c2cccc(Cl)c2)cc1` the value was “INSR”; for `COc1ccccc1-n1c(SCCCC(=O)OCc2ccccc2)nnc1-c1ccccc1` [benzyl 4-(4-(2-methoxyphenyl)-5-phenyl-4H-1,2,4-triazol-3-ylthio)butanoate], “AURORA-A”. Turning to `COc1ccccc1-n1c(SCCn2cccc2)nnc1-c1cccc(Cl)c1`, the “protein kinase against which the compound exhibits inhibitory activity (Table 3)” value is recorded as “ROCK2”.

Regarding `COc1ccccc1-n1c(SCC(=O)Nc2cccc(NC(=O)c3ccco3)c2)nnc1-c1ccccc1O`, the “protein kinase against which the compound exhibits inhibitory activity (Table 3)” value is recorded as “AURORA-A”.

As for `Cn1c(SCc2ccccn2)nnc1-c1ccc(O)cc1` [4-(4-methyl-5-(pyridin-2-ylmethylthio)-4H-1,2,4-triazol-3-yl)phenol], the “protein kinase against which the compound exhibits inhibitory activity (Table 3)” value is “GSK3-β; also recorded: GSK3-α”.

In the case of `COc1ccc(-n2c(SCc3nnc(-c4ccccc4)o3)nnc2-c2ccncc2)cc1`, the “protein kinase against which the compound exhibits inhibitory activity (Table 3)” value is “GSK3-α”. Still for that read-out and setting: with `CCOCCSc1nnc(-c2cccnc2)[nH]1` [3-(5-(2-ethoxyethylthio)-4H-1,2,4-triazol-3-yl)pyridine] the entry was “AURORA-A”; with `CCC(c1ccccc1)c1nnc(SCc2cccc3ccccc23)[nH]1` (stereo not shown) [3-(naphthalen-1-ylmethylthio)-5-(1-phenylpropyl)-4H-1,2,4-triazole], “AURORA-A”; with `O=C(O)CCSc1nnc(-c2cccnc2)n1-c1ccccc1` [3-(4-phenyl-5-(pyridin-3-yl)-4H-1,2,4-triazol-3-ylthio)propanoic acid], “AURORA-A”.

The values above are taken from patent publication US20050288347A1, “Certain triazole-based compounds, compositions, and uses thereof” (priority 2004, published 2005).
